{
  "source": "patent US10617735B2",
  "about": "“Methods and compositions for preserving retinal ganglion cells” (Massachusetts Eye and Ear Infirmary, priority 2010, dated 2020)",
  "type_in_all_cases": "in vivo, mouse",
  "key": {"[1]": {"system": "retinal ganglion cells (RGCs)", "assay": "NMDA retinal excitotoxicity model: Brn3b positive cells", "settings": "NMDA injected intravitreously in combination with the compounds", "from_the_text": "(§1) Two mouse models of RGC death were utilized: optic nerve (ON) injury and N-methyl-D-aspartate (NMDA) retinal excitotoxicity. ON injury leads to RGC death as a result of primary damage to the axons, with its ensuing disruption of retrograde axonal transport (Libby et al., (2005) PLOS GENET 1:17-26) and is used as an RGC death model. In the ON injury model, mice were anesthetized and subjected to severe crush injury at 1-2 mm distance from the eyeball for 15 seconds using cross-action forceps taking special care not to interfere with the blood supply (Levkovitch-Verbin, (2004) EYE 18:1066-1074). Injured mice were randomly divided into 4 groups for treatment: vehicle group (0.5% DMSO and 0.8% cyclodextrin in PBS, n=6), ZVAD group (300 n=6), Nec-1 group (4 mM, n=6), and ZVAD plus Nec-1 group (n=6). Soon after injury, each group received an intravitreal injection (2 μl) with the respective compounds. In the NMDA retinal excitotoxicity model, NMDA (2 μl of a 0.1M stock; Sigma-Aldrich) was injected intravitreously in combination with ZVAD, Nec-1, or ZVAD plus Nec-1 and mice were separated into the aforementioned 4 groups. […]"}, "[2]": {"system": "retinal ganglion cells (RGCs)", "assay": "NMDA retinal excitotoxicity model: TUNEL staining", "settings": "NMDA injected intravitreously in combination with the compounds", "from_the_text": "as §1"}, "[3]": {"system": "Apoptosis inducing factor (AIF)", "assay": "AIF immunostaining with TUNEL after ON injury (nuclear translocation)", "settings": "one day after ON injury", "method": "Apoptosis inducing factor (AIF) is a mitochondrial flavoprotein which is involved in initiating caspase-independent apoptosis. After loss of mitochondrial membrane potential, AIF translocates into the nucleus, induces DNA fragmentation and peripheral chromatin condensation (Susin et al., (1999), Susin et al., (2000), Candé et al., (2004)). To analyze whether mitochondrial release of AIF is associated with RGC death after ON injury, immunostaining for AIF was performed together with TUNEL assay. One day after ON injury, there was a prominent nuclear translocation of AIF, which was not affected by pan-caspase inhibition (FIGS. 7A and 7B)."}, "[4]": {"system": "retinal ganglion cells (RGCs)", "assay": "Brn3b immunohistochemistry (viable RGCs) after ON injury", "settings": "RIP3−/− mice; seven days after ON injury", "from_the_text": "as §1"}, "[5]": {"system": "retinal ganglion cells (RGCs)", "assay": "TUNEL staining after ON injury", "from_the_text": "Two mouse models of RGC death were utilized: optic nerve (ON) injury and N-methyl-D-aspartate (NMDA) retinal excitotoxicity. ON injury leads to RGC death as a result of primary damage to the axons, with its ensuing disruption of retrograde axonal transport (Libby et al., (2005) PLOS GENET 1:17-26) and is used as an RGC death model. In the ON injury model, mice were anesthetized and subjected to severe crush injury at 1-2 mm distance from the eyeball for 15 seconds using cross-action forceps taking special care not to interfere with the blood supply (Levkovitch-Verbin, (2004) EYE 18:1066-1074). […] Soon after injury, each group received an intravitreal injection (2 μl) with the respective compounds. In the NMDA retinal excitotoxicity model, NMDA (2 μl of a 0.1M stock; Sigma-Aldrich) was injected intravitreously in combination with ZVAD, Nec-1, or ZVAD plus Nec-1 and mice were separated into the aforementioned 4 groups. The dose of these compounds was selected based on previous studies (Karl et al., (2008) PROC NATL ACAD SCI USA 105:19508-19513; Knoferle et al., (2010) PROC NATL ACAD SCI USA 107:6064-6069; Nakazawa et al., (2006) J NEUROSCI 26:12633-12641; Rosenbaum et al., (2010) J NEUROSCI RES 88:1569-1576).\nIntravitreal injections were performed as follows. Briefly, the tip of a 33 gauge needle (Hamilton, Reno, Nev.) was carefully inserted through the sclera into the intravitreal space to reduce intraocular pressure. Then, the needle was extracted, loaded with compounds and tangentially reinserted through the sclera into the intravitreal space, inducing a self-sealing wound tunnel. After injection, the absence of choroidal bleeding was confirmed. At specified times after injury, mice were sacrificed with an overdose of sodium pentobarbital, and eyes were enucleated."}, "Atg5, 7 and 12": {"system": "Atg5, 7 and 12", "assay": "Atg5, Atg7 and Atg12 expression after ON injury (quantitative RT-PCR)", "settings": "one day after ON injury; compared with vehicle treatment", "method": "Total RNA extraction, cDNA synthesis and PCR amplification have been performed as previously reported (Kayama et al., (2010) OPHTHALMIC RES 43:79-91). A real-time PCR assay was performed with Prism 7700 Sequence Detection System (Applied Biosystems, Foster City, Calif.). The primers are shown below in Table 1.\nFor relative comparison of each gene, the Ct value of real-time PCR data was analyzed with the ΔΔCt method and normalized to an endogenous control ([…].\nTo investigate whether autophagy influences RGC death after ON injury, expression of several genes critical for autophagosome formation including Atg5, 7 and 12 was measured by quantitative RT-PCR. […] In contrast, administration of ZVAD plus Nec-1, or Rip3 deficiency suppressed expression of Atg5, 7 and 12 transcripts (FIGS. 9A-9C)."}},
  "note": "Where a SMILES comes first, the peptide text is derived from it. The star is where a group is joined. Cbz = O=C(OCc1ccccc1)*; CH2F = FC*",
  "data": [
    {"smiles": "COC(=O)CC(NC(=O)C(C)NC(=O)C(NC(=O)OCc1ccccc1)C(C)C)C(=O)CF", "note": "(stereo not drawn) [Z-VAD, Benzyloxycarbonyl-Val-Ala-Asp(OMe)-fluoromethylketone] (Cbz-Val-Ala-Asp(OMe)-CH2F; configuration not given here)", "values": [
      {"measurement": "reduction of Brn3b positive cells", "setting": "[1]", "result": "prevented the reduction of Brn3b positive cells"},
      {"measurement": "number of TUNEL positive cells", "setting": "[2]", "result": "decreased the number of TUNEL positive cells"},
      {"measurement": "nuclear translocation of AIF", "setting": "[3]", "result": "not affected"},
      {"measurement": "number of Brn3b positive cells", "setting": "[4]", "result": "further enhanced"},
      {"measurement": "TUNEL positive cells", "setting": "[5]; RIP3−/− mice, one day after ON injury", "result": "marked decrease in TUNEL positive cells"},
      {"measurement": "TUNEL positive cells (apoptotic RGCs)", "setting": "[5]; wild-type mice, day one after ON injury, intravitreal Z-VAD (300 uM) and/or Nec-1 (400 uM)", "result": "failed to rescue RGCs"},
      {"measurement": "Atg12 expression", "setting": "Atg5, 7 and 12", "result": "further increased"}
    ]}
  ]
}
